Source: US11708366B2, “Heteroaryl substituted spiropiperidinyl derivatives and pharmaceutical uses thereof” (Novartis AG, priority 2020, dated 2023)

biological target: LTC4S (Homo sapiens (Human), UniProt Q16873); test: Human whole blood HTRF assay (LTC4 release after calcium ionophore A23187); format: cell-based; settings: human whole blood HTRF IC50, human whole blood diluted 1:3, 4 h incubation, calcium ionophore A23187 stimulation, LTC4 by HTRF

`Cn1nc(OC2CCOCC2)cc(N2CCC3(CCCC(=O)N3c3ccc(F)c(F)c3)CC2)c1=O` [Example 17, 1-(3,4-difluorophenyl)-9-(2-methyl-3-oxo-6-((tetrahydro-2H-pyran-4-yl)oxy)-2,3-dihydropyridazin-4-yl)-1,9-diazaspiro[5.5]undecan-2-one] was tested, and the IC50 was 9 nM.

same assay, conditions: human whole blood diluted 1:3, 4 h incubation, calcium ionophore A23187 stimulation, LTC4 by HTRF; read-out: human whole blood HTRF IC50

Compared with `CC1(O)CN(c2nc(N)cc(N3CCC4(CCCC(=O)N4c4ccc(F)c(F)c4)CC3)n2)C1` [Example 43, 9-(6-amino-2-(3-hydroxy-3-methylazetidin-1-yl)pyrimidin-4-yl)-1-(3,4-difluorophenyl)-1,9-diazaspiro[5.5]undecan-2-one], `CC(Oc1cc(N2CCC3(CCCC(=O)N3c3ccc(F)c(F)c3)CC2)nc(N)n1)C(F)(F)F` (racemic) [Example 95, rac-9-(2-amino-6-((1,1,1-trifluoropropan-2-yl)oxy)pyrimidn-4-yl)-1-(3,4-difluorophienyl)-1,9-diazaspiro[5.5]undecan-2-one] is 200-fold lower in IC50: 400 nM for the first, 2 nM for the second.

Going from `O=C1CCCC2(CCN(c3cc(OC4COC4)nc(C(F)(F)F)n3)CC2)N1c1ccc(F)c(F)c1` [Example 61, 1-(3,4-difluorophenyl)-9-(6-(oxetan-3-yloxy)-2-(trifluoromethyl)pyrimidin-4-yl)-1,9-diazaspiro[5.5]undecan-2-one] to `O=C1CCCC2(CCN(c3cc(-n4cncn4)ncn3)CC2)N1c1ccc(F)c(F)c1` [Example 54, 9-(6-(1H-1,2,4-triazol-1-yl)pyrimidin-4-yl)-1-(3,4-difluorophenyl)-1,9-diazaspiro[5.5]undecan-2-one], the IC50 rises from 29 nM to 300 nM (10-fold).

Compared with `O=C1CCCC2(CCN(c3ncnc(N4CCC(O)(C(F)(F)F)CC4)n3)CC2)N1c1ccc(F)c(F)c1` [Example 40, 1-(3,4-difluorophenyl)-9-(4-(4-hydroxy-4-(trifluoromethyl)piperidin-1-yl)-1,3,5-triazin-2-yl)-1,9-diazaspiro[5.5]undecan-2-one], `O=C1CCCC2(CCN(c3cc(OCC(F)(F)F)nc(Cl)n3)CC2)N1c1ccc(F)c(F)c1` [Example 88, 9-(2-chloro-6-(2,2,2-trifluoroethoxy)pyrimidin-4-yl)-1-(3,4-difluorophenyl)-1,9-diazaspiro[5.5]undecan-2-one] is 340-fold higher in IC50: 4 nM for the first, 1370 nM for the second.

First: CC(F)(F)c1cc(N2CCC3(CCCC(=O)N3c3ccc(F)c(F)c3)CC2)nc(N)n1 [Example 120, 9-(2-amino-6-(1,1-difluoroethyl)pyrimidin-4-yl)-1-(3,4-difluorophenyl)-1,9-diazaspiro[5.5]undecan-2-one]
Second: O=C1CCCC2(CCN(c3cc(Oc4cccc(Cl)c4)cc[n+]3[O-])CC2)N1c1ccc(F)c(F)c1 [Example 34, 4-(3-chlorophenoxy)-2-(1-(3,4-difluorophenyl)-2-oxo-1,9-diazaspiro[5.5]undecan-9-yl)pyridine 1-oxide]
The IC50 of the first is 16-fold higher: 32 nM for the first, 2 nM for the second. The second is the more potent here.

First: O=C1CCCC2(CCN(c3cc(OCC(F)(F)F)n[nH]c3=O)CC2)N1c1ccc(F)c(F)c1 [Example 13, 1-(3,4-difluorophenyl)-9-(3-oxo-6-(2,2,2-trifluoroethoxy)-2,3-dihydropyridazin-4-yl)-1,9-diazaspiro[5.5]undecan-2-one]
Second: Nc1nc(OC2CCOCC2)cc(N2CCC3(CC2)C[C@H](F)CC(=O)N3c2ccc(F)c(F)c2)n1 (single isomer, unassigned) [Example 116a, (R)-9-(2-amino-6-((tetrahydro-2H-pyran-4-yl)oxy)pyrimidin-4-yl)-1-(3,4-difluorophenyl)-4-fluoro-1,9-diazaspiro[5.5]undecan-2-one, or (S)-9-(2-amino-6-((tetrahydro-2H-pyran-4-yl)oxy)pyrimidin-4-yl)-1-(3,4-difluorophenyl)-4-fluoro-1,9-diazaspiro[5.5]undecan-2-one]
The IC50 of the first is 2.8-fold higher: 36 nM for the first, 13 nM for the second. The second is the more potent here.

Compared with `O=C1CCCC2(CCN(c3cc(-n4cccn4)nc(N4CCOCC4)n3)CC2)N1c1ccc(F)c(F)c1` [Example 52, 1-(3,4-difluorophenyl)-9-(2-morpholino-6-(1H-pyrazol-1-yl)pyrimidin-4-yl)-1,9-diazaspiro[5.5]undecan-2-one], `O=C1CCCC2(CCN(c3cc(-n4cc(F)cn4)nc(N4CCOCC4)n3)CC2)N1c1ccc(F)c(F)c1` [Example 73, 1-(3,4-difluorophenyl)-9-(6-(4-fluoro-1H-pyrazol-1-yl)-2-morpholinopyrimidin-4-yl)-1,9-diazaspiro[5.5]undecan-2-one] is 2.3-fold higher in IC50: 29 nM for the first, 68 nM for the second. The first is the more potent here.

First: O=C1CCCC2(CCN(c3cc(-n4cc(F)cn4)ncn3)CC2)N1c1ccc(F)c(F)c1 [Example 56, 9-(6-(4-fluoro-1H-pyrazol-1-yl)pyrimidin-4-yl)-1-(3,4-difluorophenyl)-1,9-diazaspiro[5.5]undecan-2-one]
Second: N#Cc1nc(N2CCC3(CCCC(=O)N3c3ccc(F)c(F)c3)CC2)cc(-n2cccn2)n1 [Example 49, 4-(1-(3,4-difluorophenyl)-2-oxo-1,9-diazaspiro[5.5]undecan-9-yl)-6-(1H-pyrazol-1-yl)pyrimidine-2-carbonitrile]
The IC50 of the first is 5.2-fold lower: 17 nM for the first, 88 nM for the second.

Compared with “(S)-9-(2-amino-6-(2,2,2-trifluoro-1-(oxetan-3-yl)ethoxy)pyrimidin-4-yl)-1-(3,4-difluorophenyl)-1,9-diazaspiro[5.5]undecan-2-one or (R)-9-(2-amino-6-(2,2,2-trifluoro-1-(oxetan-3-yl)ethoxy)pyrimidin-4-yl)-1-(3,4-difluorophenyl)-1,9-diazaspiro[5.5]undecan-2-one [Example 89a]”, `Nc1nc(O[C@H](C2COC2)C(F)(F)F)cc(N2CCC3(CCCC(=O)N3c3ccc(F)c(F)c3)CC2)n1` (single isomer, unassigned) [Example 89b, (R)-9-(2-amino-6-(2,2,2-trifluoro-1-(oxetan-3-yl)ethoxy)pyrimidin-4-yl)-1-(3,4-difluorophenyl)-1,9-diazaspiro[5.5]undecan-2-one or (S)-9-(2-amino-6-(2,2,2-trifluoro-1-(oxetan-3-yl)ethoxy)pyrimidin-4-yl)-1-(3,4-difluorophenyl)-1,9-diazaspiro[5.5]undecan-2-one] is 5-fold higher in IC50: 1 nM for the first, 5 nM for the second. The first is the more potent here.

First: Nc1nc(N2CCC3(CCCC(=O)N3c3ccc(F)c(F)c3)CC2)cc(N2C[C@H]3C[C@@H]2CO3)n1 (racemic) [Example 46, rac-9-(2-amino-6-((1R,4R)-2-oxa-5-azabicyclo[2.2.1]heptan-5-yl)pyrimidin-4-yl)-1-(3,4-difluorophenyl)-1,9-diazaspiro[5.5]undecan-2-one]
Second: Nc1nc(N2CCC3(CCCC(=O)N3c3ccc(F)c(F)c3)CC2)cc(C(F)(F)C(F)(F)F)n1 [Example 77, 9-(2-amino-6-(perfluoroethyl)pyrimidin-4-yl)-1-(3,4-difluorophenyl)-1,9-diazaspiro[5.5]undecane-2-one]
The IC50 of the first is 16-fold higher: 490 nM for the first, 31 nM for the second.

First: Nc1nc(OC2CC(F)(F)C2)cc(N2CCC3(CCCC(=O)N3c3ccc(F)c(F)c3)CC2)n1 [Example 90, 9-(2-amino-6-(3,3-difluorocyclobutoxy)pyrimidin-4-yl)-1-(3,4-difluorophenyl)-1,9-diazaspiro[5.5]undecan-2-one]
Second: CCOC(=O)c1nc(O[C@@H]2COC[C@H]2F)cc(N2CCC3(CCCC(=O)N3c3ccc(F)c(F)c3)CC2)n1 (racemic) [Example 111, rac ethyl 4-(1-(3,4-difluorophenyl)-2-oxo-1,9-diazaspiro[5.5]undecane-9-yl)-6-(((3S,4S)-4-fluorotetrahydrofuran-3-yl)oxy)pyrimidine-2-carboxylate]
The IC50 of the first is 4.2-fold lower: 4 nM for the first, 17 nM for the second. The first is the more potent here.

Compared with `CN(C)c1nc(N2CCC3(CCCC(=O)N3c3ccc(F)c(F)c3)CC2)cc(-n2cccn2)n1` [Example 53, 1-(3,4-difluorophenyl)-9-(2-(dimethylamino)-6-(1H-pyrazol-1-yl)pyrimidin-4-yl)-1,9-diazaspiro[5.5]undecan-2-one], `Nc1nc(N2CCC3(CCCC(=O)N3c3ccc(F)c(F)c3)CC2)cc(C(F)(F)F)n1` [Example 76, 9-(2-amino-6-(trifluoromethyl)pyrimidin-4-yl)-1-(3,4-difluorophenyl)-1,9-diazaspiro[5.5]undecan-2-one] is 20-fold lower in IC50: 1140 nM for the first, 57 nM for the second.

Going from `C[C@@H](Oc1cc(N2CCC3(CCCC(=O)N3c3ccc(F)c(F)c3)CC2)nc(CO)n1)C(F)(F)F` (single isomer, unassigned) [Example 110b, (R)-1-(3,4-difluorophenyl)-9-(2-(hydroxymethyl)-6-((1,1,1-trifluoropropan-2-yl)oxy)pyrimidin-4-yl)-1,9-diazaspiro[5.5]undecan-2-one or (S)-1-(3,4-difluorophenyl)-9-(2-(hydroxymethyl)-6-((1,1,1-trifluoropropan-2-yl)oxy)pyrimidin-4-yl)-1,9-diazaspiro[5.5]undecan-2-one] to `C[C@H](Oc1cc(N2CCC3(CCOC(=O)N3c3ccc(F)c(F)c3)CC2)nc(N)n1)C(F)(F)F` [Example 113b, (S)-9-(2-amino-6-((1,1,1-trifluoropropan-2-yl)oxy)pyrimidin-4-yl)-1-(3,4-difluorophenyl)-3-oxa-1,9-diazaspiro[5.5]undecan-2-one, or (R)-9-(2-amino-6-((1,1,1-trifluoropropan-2-yl)oxy)pyrimidin-4-yl)-1-(3,4-difluorophenyl)-3-oxa-1,9-diazaspiro[5.5]undecan-2-one], the IC50 rises from 5 nM to 36 nM (7.2-fold). The first is the more potent here.

Compared with `O=C1CCCC2(CCN(c3cc(-n4cnc(C(F)(F)F)c4)ncn3)CC2)N1c1ccc(F)c(F)c1` [Example 58, 1-(3,4-difluorophenyl)-9-(6-(4-(trifluoromethyl)-1H-imidazol-1-yl)pyrimidin-4-yl)-1,9-diazaspiro[5.5]undecan-2-one], `CC(C)(O)c1nc(N2CCC3(CCCC(=O)N3c3ccc(F)c(F)c3)CC2)cc(C(F)(F)F)n1` [Example 80, 1-(3,4-difluorophenyl)-9-(2-(2-hydroxypropan-2-yl)-6-(trifluoromethyl)pyrimidin-4-yl)-1,9-diazaspiro[5.5]undecan-2-one] is 23-fold lower in IC50: 560 nM for the first, 24 nM for the second.

Compound `CC(C)(O)c1nc(N2CCC3(CCCC(=O)N3c3ccc(F)c(F)c3)CC2)cc(-n2cc(C(F)(F)F)cn2)n1` [Example 65, 1-(3,4-difluorophenyl)-9-(2-(2-hydroxypropan-2-yl)-6-(4-(trifluoromethyl)-1H-pyrazol-1-yl)pyrimidin-4-yl)1,9-diazaspiro[5.5]undecane-2-one] has an IC50 of 1 nM.
